Legend:
[1] = Solution thermodynamics: formation constants (log KML) and pM of Ga(III) complexes, potentiometric titration; type: physicochemical; conditions: Ga(III) complex; ligand-ligand competition with EDTA, potentiometric titration, 25 °C, 0.16 M NaCl
Method: A more relevant indicator of the extent to which a metal complex is formed in solution is given by pM (−log free M) which considers the influence of ligand basicity and chelate hydrolysis.
Carbonate-free solutions of the titrant, NaOH, were prepared by dilution of 50% solution (Acros Organics) with freshly boiled MQ water under a stream of purified nitrogen gas. The solution was standardized with potassium acid phthalate and the extent of carbonate accumulation was periodically checked by titration with a standard hydrochloric acid solution and determination of the corresponding Gran titration plot.^47 Gallium ion solutions were prepared by dilution of the appropriate atomic absorption (AA) standard. The exact amount of acid present in the gallium standard was determined by titration of an equimolar solution of Ga and Na2H2EDTA. The amount of acid present was determined by Gran's method.^47
Data were collected in triplicate using PC Control (Version 6.0.91, Metrohm). The titration apparatus consisted of a 10 mL water jacketed glass vessel maintained at 25.0±0.1° C. (Julabo waterbath). Prior to and during the course of the titration, a blanket of nitrogen, passed through 10% NaOH to exclude any CO2, was maintained over the sample solution. The ionic strength was maintained at 0.16 M using NaCl. Prior to each potentiometric equilibrium study, the electrode was calibrated using standard HCl solutions. Calibration data were analysed by standard computer treatment provided within the program MacCalib to obtain the calibration parameters E0 and pKw.
As the degree of formation of Ga(III) complexes at low pH (<2) was too high for the determination of stability constants by use of direct potentiometry, the ligand-ligand competition method using Na2H2EDTA was also performed.

[2] = Biodistribution in female ICR mice; type: in vivo
Method: The protocol used in the animal studies was approved by the Institutional Animal Care Committee of the University of British Columbia and was performed in accordance with the Canadian Council on Animal Care Guidelines. A total of 16 female ICR (20-30 g) mice were used for the animal study of each of the three compounds. ^67Ga(dedpa)^+, ^67Ga(66)^+, or ^67Ga(69)^+ was prepared as described above and then diluted in phosphate buffered saline to a concentration of 100 μCi/mL. Each mouse was i.v. injected with ˜10 μCi (100 μL) of the ^67Ga complex and then sacrificed by CO2 inhalation at 30 min, 1 h, 2 h, or 4 h after injection (n=4 at each time point). Blood was collected by cardiac puncture and plasma was separated from whole blood by centrifuging (2500 rpm, 15 min). Urine was collected from the bladder. Tissues collected included kidney, liver, spleen, femur, muscle, heart, lung, intestine and brain. Tissues were weighed and counted on a gamma counter and the counts were converted to % injected dose/gram (% ID/g). Tables 4-6 show the biodistibution data of ^67Ga(dedpa)^+, ^67Ga(66)^+ and ^67Ga(69)^+, respectively, in female ICR mice. FIG. 4 illustrates biodistribution over 4 h of ^67Ga(dedpa)^+ in female ICR mice, and FIG. 5 illustrates biodistribution of ^67Ga(66)^+ (upper) and ^67Ga(69)^+ (lower) in female ICR mice over 4 h; complete data for urine are shown also in separate diagrams to the right.

[3] = Serum stability studies done in vitro (^67Ga); type: in vitro ADME
[4] = biological target: human apo-transferrin (Homo sapiens, UniProt P02787); experiment: ^67Ga complex stability: 2-h competition with excess human apo-transferrin, HPLC; conditions: ^67Ga complex, up to 2 h
Sequence of human apo-transferrin (P02787 20-698): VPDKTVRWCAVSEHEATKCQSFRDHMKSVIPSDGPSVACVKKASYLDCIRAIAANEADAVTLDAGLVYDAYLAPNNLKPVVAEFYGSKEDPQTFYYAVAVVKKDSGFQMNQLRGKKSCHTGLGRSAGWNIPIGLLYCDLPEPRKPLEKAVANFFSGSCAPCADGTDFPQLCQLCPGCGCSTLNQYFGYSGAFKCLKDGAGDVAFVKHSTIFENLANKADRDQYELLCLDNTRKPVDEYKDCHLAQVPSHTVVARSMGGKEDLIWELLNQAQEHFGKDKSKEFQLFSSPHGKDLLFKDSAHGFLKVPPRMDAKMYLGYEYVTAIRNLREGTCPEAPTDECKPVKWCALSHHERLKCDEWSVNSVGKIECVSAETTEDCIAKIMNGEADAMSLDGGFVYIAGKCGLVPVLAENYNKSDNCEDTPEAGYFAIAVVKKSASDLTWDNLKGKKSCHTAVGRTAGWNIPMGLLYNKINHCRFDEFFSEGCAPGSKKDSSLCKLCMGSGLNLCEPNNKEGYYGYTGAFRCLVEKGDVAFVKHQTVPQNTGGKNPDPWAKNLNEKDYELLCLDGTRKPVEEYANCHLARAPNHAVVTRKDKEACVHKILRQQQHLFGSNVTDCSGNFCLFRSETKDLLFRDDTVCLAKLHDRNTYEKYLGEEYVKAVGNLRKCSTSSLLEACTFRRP
Method: FIG. 13 illustrates stacked labelling traces of ^67Ga(dedpa)^+ of 2 h stability experiment against apo-transferrin (gradient: A: NaOAc buffer, pH 4.5, B: MeOH. 0-100% B linear gradient 20 min).

In the case of `O=C(O)c1cccc(CNCCNCc2cccc(C(=O)O)n2)n1` [^67Ga(dedpa)^+, metal not drawn], the “log KML” value [1] is reported as 28.11(8), the “Biodistribution, Brain, 30 min” value ([2]; Brain, 30 min after i.v. injection, mean ± SD, 4 animals) is reported as 0.264 ± 0.132 % ID/g and the “Biodistribution, Brain, 1 h” value ([2]; Brain, 1 h after i.v. injection, mean ± SD, 4 animals) is reported as 0.246 ± 0.123 % ID/g. For the same compound, the “Biodistribution, Brain, 2 h” value ([2]; Brain, 2 h after i.v. injection, mean ± SD, 4 animals) was 0.213 ± 0.106 % ID/g, the “Biodistribution, Brain, 4 h” value ([2]; Brain, 4 h after i.v. injection, mean ± SD, 4 animals) was 0.139 ± 0.069 % ID/g and the “Biodistribution, Femur, 30 min” value ([2]; Femur, 30 min after i.v. injection, mean ± SD, 4 animals) was 2.180 ± 1.090 % ID/g. The “Biodistribution, Femur, 1 h” value ([2]; Femur, 1 h after i.v. injection, mean ± SD, 4 animals) was 2.136 ± 1.068 % ID/g, the “Biodistribution, Femur, 2 h” value ([2]; Femur, 2 h after i.v. injection, mean ± SD, 4 animals) was 1.893 ± 0.946 % ID/g and the “Biodistribution, Femur, 4 h” value ([2]; Femur, 4 h after i.v. injection, mean ± SD, 4 animals) was 2.218 ± 1.109 % ID/g. The “Biodistribution, Heart, 30 min” value ([2]; Heart, 30 min after i.v. injection, mean ± SD, 4 animals) was 2.645 ± 1.323 % ID/g, the “Biodistribution, Heart, 1 h” value ([2]; Heart, 1 h after i.v. injection, mean ± SD, 4 animals) was 2.490 ± 1.245 % ID/g and the “Biodistribution, Heart, 2 h” value ([2]; Heart, 2 h after i.v. injection, mean ± SD, 4 animals) was 2.412 ± 1.206 % ID/g. The “Biodistribution, Heart, 4 h” value ([2]; Heart, 4 h after i.v. injection, mean ± SD, 4 animals) was 2.004 ± 1.002 % ID/g, the “Biodistribution, Intestine, 30 min” value ([2]; Intestine, 30 min after i.v. injection, mean ± SD, 4 animals) was 2.099 ± 1.050 % ID/g and the “Biodistribution, Intestine, 1 h” value ([2]; Intestine, 1 h after i.v. injection, mean ± SD, 4 animals) was 2.123 ± 1.062 % ID/g. For the same compound, the “Biodistribution, Intestine, 2 h” value ([2]; Intestine, 2 h after i.v. injection, mean ± SD, 4 animals) was 1.995 ± 0.998 % ID/g, the “Biodistribution, Intestine, 4 h” value ([2]; Intestine, 4 h after i.v. injection, mean ± SD, 4 animals) was 1.990 ± 0.995 % ID/g and the “Biodistribution, Kidney, 30 min” value ([2]; Kidney, 30 min after i.v. injection, mean ± SD, 4 animals) was 8.089 ± 4.009 % ID/g. The “Biodistribution, Kidney, 1 h” value ([2]; Kidney, 1 h after i.v. injection, mean ± SD, 4 animals) was 7.827 ± 3.914 % ID/g, the “Biodistribution, Kidney, 2 h” value ([2]; Kidney, 2 h after i.v. injection, mean ± SD, 4 animals) was 9.149 ± 4.575 % ID/g and the “Biodistribution, Kidney, 4 h” value ([2]; Kidney, 4 h after i.v. injection, mean ± SD, 4 animals) was 8.301 ± 4.150 % ID/g. For the same compound, the “Biodistribution, Liver, 30 min” value ([2]; Liver, 30 min after i.v. injection, mean ± SD, 4 animals) was 3.702 ± 1.851 % ID/g, the “Biodistribution, Liver, 1 h” value ([2]; Liver, 1 h after i.v. injection, mean ± SD, 4 animals) was 3.695 ± 1.847 % ID/g and the “Biodistribution, Liver, 2 h” value ([2]; Liver, 2 h after i.v. injection, mean ± SD, 4 animals) was 3.173 ± 1.586 % ID/g. The “Biodistribution, Liver, 4 h” value ([2]; Liver, 4 h after i.v. injection, mean ± SD, 4 animals) was 2.736 ± 1.368 % ID/g, the “Biodistribution, Lung, 30 min” value ([2]; Lung, 30 min after i.v. injection, mean ± SD, 4 animals) was 4.878 ± 2.439 % ID/g and the “Biodistribution, Lung, 1 h” value ([2]; Lung, 1 h after i.v. injection, mean ± SD, 4 animals) was 4.896 ± 2.448 % ID/g. For the same compound, the “Biodistribution, Lung, 2 h” value ([2]; Lung, 2 h after i.v. injection, mean ± SD, 4 animals) was 4.846 ± 2.423 % ID/g, the “Biodistribution, Lung, 4 h” value ([2]; Lung, 4 h after i.v. injection, mean ± SD, 4 animals) was 3.260 ± 1.630 % ID/g and the “Biodistribution, Muscle, 30 min” value ([2]; Muscle, 30 min after i.v. injection, mean ± SD, 4 animals) was 1.210 ± 0.605 % ID/g. For the same compound, the “Biodistribution, Muscle, 1 h” value ([2]; Muscle, 1 h after i.v. injection, mean ± SD, 4 animals) was 1.153 ± 0.576 % ID/g, the “Biodistribution, Muscle, 2 h” value ([2]; Muscle, 2 h after i.v. injection, mean ± SD, 4 animals) was 1.092 ± 0.546 % ID/g and the “Biodistribution, Muscle, 4 h” value ([2]; Muscle, 4 h after i.v. injection, mean ± SD, 4 animals) was 1.127 ± 0.564 % ID/g. The “Biodistribution, Serum, 30 min” value ([2]; Serum, 30 min after i.v. injection, mean ± SD, 4 animals) was 16.067 ± 8.033 % ID/g, the “Biodistribution, Serum, 1 h” value ([2]; Serum, 1 h after i.v. injection, mean ± SD, 4 animals) was 9.047 ± 4.524 % ID/g and the “Biodistribution, Serum, 2 h” value ([2]; Serum, 2 h after i.v. injection, mean ± SD, 4 animals) was 12.042 ± 6.021 % ID/g. The “Biodistribution, Serum, 4 h” value ([2]; Serum, 4 h after i.v. injection, mean ± SD, 4 animals) was 12.235 ± 6.118 % ID/g, the “Biodistribution, Spleen, 30 min” value ([2]; Spleen, 30 min after i.v. injection, mean ± SD, 4 animals) was 1.366 ± 0.683 % ID/g and the “Biodistribution, Spleen, 1 h” value ([2]; Spleen, 1 h after i.v. injection, mean ± SD, 4 animals) was 1.357 ± 0.679 % ID/g. For the same compound, the “Biodistribution, Spleen, 2 h” value ([2]; Spleen, 2 h after i.v. injection, mean ± SD, 4 animals) was 1.273 ± 0.637 % ID/g, the “Biodistribution, Spleen, 4 h” value ([2]; Spleen, 4 h after i.v. injection, mean ± SD, 4 animals) was 0.989 ± 0.495 % ID/g and the “Excretion route (in words)” value ([2]; mice, i.v.) was “excreted mainly through the kidneys”. The “Time to clearance from background tissue, such as muscle” value ([2]; mice, i.v.) was no more than 30 min, the “Bone uptake (in words)” value ([2]; mice, i.v., indicator for complex stability) was “low uptake in bone” and the “Serum stability in vitro (in words)” value [3] was “stable to transchelation by serum proteins”. For the same compound, the “Complex stability against apo-transferrin (in words)” value (from here on “Complex stability”) ([4]; listed as 67/68Ga(dedpa)^+) was “No decomposition was detected”, the “Complex stability” value ([4]; listed as 67Ga(dedpa)^+) was “fully intact” and the “Complex stability” value ([4]; listed as Ga(dedpa)^+) was “no decomposition was detected”.
